As a reminder, the IC50 is the point on the concentration scale where inhibition reaches its midpoint. What is called Ki is a measure of affinity in units of concentration, obtained from inhibition or displacement.

The target in experiment [1] is Beta-1 adrenergic receptor (Homo sapiens, UniProt P08588). Briefly: DRUGMATRIX: Adrenergic beta1 radioligand binding (ligand: [125I] Cyanopindolol). It counts as cell membranes, CHO-K1, Membrane. Particulars: cho-k1; Not Active = under 50% inhibition at 10 µM.
Beta-1 adrenergic receptor, sequence (P08588 whole entry): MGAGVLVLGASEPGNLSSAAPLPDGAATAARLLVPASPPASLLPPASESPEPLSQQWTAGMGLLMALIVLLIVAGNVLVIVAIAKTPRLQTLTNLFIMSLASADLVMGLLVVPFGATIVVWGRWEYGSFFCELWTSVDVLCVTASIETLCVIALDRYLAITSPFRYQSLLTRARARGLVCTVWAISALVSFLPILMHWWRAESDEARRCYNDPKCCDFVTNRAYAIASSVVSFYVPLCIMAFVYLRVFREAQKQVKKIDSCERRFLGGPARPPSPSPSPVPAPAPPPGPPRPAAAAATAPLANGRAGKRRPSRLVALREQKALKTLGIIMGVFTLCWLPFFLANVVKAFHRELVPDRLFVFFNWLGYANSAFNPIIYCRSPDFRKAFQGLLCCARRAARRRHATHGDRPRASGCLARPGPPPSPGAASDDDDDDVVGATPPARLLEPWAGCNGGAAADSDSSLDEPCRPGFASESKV
Experiment [2] in a line: DRUGMATRIX: beta-Lactamase enzyme inhibition (substrate: Nitrocefin). Details: species or system Bacillus cereus. The conditions noted are these: Not Active = under 50% inhibition at 10 µM.
Experiment [3] deals with T1, 5-hydroxytryptamine receptor 2C (Homo sapiens, UniProt P28335).
T1 sequence (P28335 whole entry): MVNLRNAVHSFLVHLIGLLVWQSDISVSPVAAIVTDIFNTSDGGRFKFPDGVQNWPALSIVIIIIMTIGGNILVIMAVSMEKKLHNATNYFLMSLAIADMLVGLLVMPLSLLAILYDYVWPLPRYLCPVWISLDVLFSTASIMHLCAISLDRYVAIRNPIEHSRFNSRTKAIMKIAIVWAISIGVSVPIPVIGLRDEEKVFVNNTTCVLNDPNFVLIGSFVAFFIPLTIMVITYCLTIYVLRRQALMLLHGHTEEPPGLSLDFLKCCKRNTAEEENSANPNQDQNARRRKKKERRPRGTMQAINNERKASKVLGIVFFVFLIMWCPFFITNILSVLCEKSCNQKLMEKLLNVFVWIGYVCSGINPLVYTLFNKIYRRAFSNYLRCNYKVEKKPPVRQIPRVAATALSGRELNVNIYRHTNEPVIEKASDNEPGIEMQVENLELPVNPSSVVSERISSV
Briefly: DRUGMATRIX: Serotonin (5-Hydroxytryptamine) 5-HT2C radioligand binding (ligand: [3H] Mesulergine). It counts as cell membranes, CHO-K1, Membrane. The conditions noted are these: cho-k1; Not Active = under 50% inhibition at 10 µM.

A short description of experiment [4]: DRUGMATRIX: Sigma2 radioligand binding (ligand: [3H] Ifenprodil). It counts as cell membranes, Rattus norvegicus, Wistar, Brain, Membrane. The conditions noted are these: Not Active = under 50% inhibition at 10 µM.
The next experiment concerns the target T2, D(4) dopamine receptor (Homo sapiens, UniProt P21917).
T2 sequence (P21917 whole entry): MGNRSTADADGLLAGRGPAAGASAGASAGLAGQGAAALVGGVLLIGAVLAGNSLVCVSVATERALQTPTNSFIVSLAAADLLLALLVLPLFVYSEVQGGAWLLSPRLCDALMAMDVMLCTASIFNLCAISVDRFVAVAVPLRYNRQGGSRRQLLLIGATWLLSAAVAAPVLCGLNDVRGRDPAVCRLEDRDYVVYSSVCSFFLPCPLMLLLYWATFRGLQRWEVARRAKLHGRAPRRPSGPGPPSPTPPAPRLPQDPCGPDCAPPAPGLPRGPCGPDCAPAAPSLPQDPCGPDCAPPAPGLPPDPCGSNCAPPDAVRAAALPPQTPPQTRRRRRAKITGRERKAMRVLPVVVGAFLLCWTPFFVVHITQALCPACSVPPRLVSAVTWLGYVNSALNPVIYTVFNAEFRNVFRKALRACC
Kind of experiment: DRUGMATRIX: Dopamine D4.2 radioligand binding (ligand: [3H] Spiperone). It counts as cell membranes, CHO-K1, Membrane. The conditions noted are these: cho-k1; Not Active = under 50% inhibition at 10 µM.

Experiment [5] in a line: DRUGMATRIX: Leukotriene, BLT (LTB4) radioligand binding (ligand: [3H]LTB4). It counts as cell membranes, Membrane. Particulars: u-937; Not Active = under 50% inhibition at 10 µM.
For experiment [6], the target named is T3, Cysteinyl leukotriene receptor 1 (Homo sapiens, UniProt Q9Y271). Further: in other assays of this panel Not Active means under 50% inhibition at 10 µM.
T3 sequence (Q9Y271 whole entry): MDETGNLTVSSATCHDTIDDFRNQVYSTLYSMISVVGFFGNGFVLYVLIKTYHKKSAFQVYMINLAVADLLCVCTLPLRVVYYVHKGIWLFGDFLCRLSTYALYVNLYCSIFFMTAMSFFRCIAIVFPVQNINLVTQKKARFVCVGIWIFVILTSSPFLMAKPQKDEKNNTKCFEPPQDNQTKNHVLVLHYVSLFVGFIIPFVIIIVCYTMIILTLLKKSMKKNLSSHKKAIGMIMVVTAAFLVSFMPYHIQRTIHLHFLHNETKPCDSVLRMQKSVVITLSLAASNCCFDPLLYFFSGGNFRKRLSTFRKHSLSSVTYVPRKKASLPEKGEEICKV
It counts as cell membranes, CHO-K1, Membrane. The conditions noted are these: cho-k1.

A further experiment deals with Melanocortin receptor 4 (Homo sapiens, UniProt P32245). It counts as cell membranes, Membrane. Particulars: hek293.
Melanocortin receptor 4, sequence (P32245 whole entry): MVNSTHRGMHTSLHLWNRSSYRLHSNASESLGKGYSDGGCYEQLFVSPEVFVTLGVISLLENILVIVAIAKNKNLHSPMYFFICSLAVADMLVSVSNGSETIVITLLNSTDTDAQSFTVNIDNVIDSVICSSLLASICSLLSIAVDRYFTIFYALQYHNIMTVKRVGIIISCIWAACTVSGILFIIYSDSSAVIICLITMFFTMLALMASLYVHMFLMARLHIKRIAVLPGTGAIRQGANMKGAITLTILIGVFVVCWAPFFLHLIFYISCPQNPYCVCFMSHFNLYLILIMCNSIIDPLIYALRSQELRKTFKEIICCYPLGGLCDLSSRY
Another experiment deals with Melanocortin receptor 5 (Homo sapiens, UniProt P33032). It counts as cell membranes, HEK293, Membrane. Particulars: hek293.
Melanocortin receptor 5, sequence (P33032 whole entry): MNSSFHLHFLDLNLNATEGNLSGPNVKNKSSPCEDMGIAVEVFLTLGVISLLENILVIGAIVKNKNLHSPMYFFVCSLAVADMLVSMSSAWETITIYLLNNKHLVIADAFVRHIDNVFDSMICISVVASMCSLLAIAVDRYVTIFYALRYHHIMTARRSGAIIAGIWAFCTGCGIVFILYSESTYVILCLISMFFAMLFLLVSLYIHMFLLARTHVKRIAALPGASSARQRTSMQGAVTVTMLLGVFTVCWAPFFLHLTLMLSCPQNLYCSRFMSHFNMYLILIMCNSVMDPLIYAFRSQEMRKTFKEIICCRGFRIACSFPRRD
The next experiment deals with T4, Caspase-1 (Homo sapiens, UniProt P29466).
T4 sequence (P29466 whole entry): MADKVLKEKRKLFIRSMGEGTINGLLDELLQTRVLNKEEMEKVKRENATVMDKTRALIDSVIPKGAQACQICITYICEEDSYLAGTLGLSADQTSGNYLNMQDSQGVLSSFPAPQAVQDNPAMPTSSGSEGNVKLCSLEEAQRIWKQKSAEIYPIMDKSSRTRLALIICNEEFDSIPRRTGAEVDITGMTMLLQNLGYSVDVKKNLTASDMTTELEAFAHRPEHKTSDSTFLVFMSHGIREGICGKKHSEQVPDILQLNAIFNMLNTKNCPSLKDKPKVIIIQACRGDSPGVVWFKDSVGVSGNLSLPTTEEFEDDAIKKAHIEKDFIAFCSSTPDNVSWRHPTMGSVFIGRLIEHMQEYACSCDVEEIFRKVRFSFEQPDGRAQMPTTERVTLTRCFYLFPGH
More on the design: species or system Escherichia coli.

The next experiment concerns the target T5, Cathepsin G (Homo sapiens, UniProt P08311).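 Further: inhibition of Cathepsin G enzyme activity, tested on an AMC-conjugated peptide substrate; in other assays of this panel Not Active means under 50% inhibition at 10 µM.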
T5 sequence (P08311 whole entry): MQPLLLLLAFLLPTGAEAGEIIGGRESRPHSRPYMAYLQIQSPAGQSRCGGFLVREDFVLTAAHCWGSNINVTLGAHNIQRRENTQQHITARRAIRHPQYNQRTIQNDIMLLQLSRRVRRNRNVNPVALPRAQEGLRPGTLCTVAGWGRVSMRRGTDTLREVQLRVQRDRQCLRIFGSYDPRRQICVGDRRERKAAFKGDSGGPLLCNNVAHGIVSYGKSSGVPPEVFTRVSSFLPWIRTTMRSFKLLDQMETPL
It counts as tissue-based. Particulars: neutrophil.

Experiment [7] has as its target Epidermal growth factor receptor (Homo sapiens, UniProt P00533). Kind of experiment: DRUGMATRIX: Protein Tyrosine Kinase, EGF Receptor enzyme inhibition (substrate: Poly(Glu:Tyr)). It counts as cell-based, Insect cells. The conditions noted are these: insect cells, Not Active = under 50% inhibition at 10 µM.
Experiment [8] deals with Tyrosine-protein kinase Fyn (Homo sapiens, UniProt P06241). Kind of experiment: biochemical. It counts as cell-based, Insect cells. The conditions noted are these: insect cells.
Tyrosine-protein kinase Fyn, sequence (P06241 whole entry): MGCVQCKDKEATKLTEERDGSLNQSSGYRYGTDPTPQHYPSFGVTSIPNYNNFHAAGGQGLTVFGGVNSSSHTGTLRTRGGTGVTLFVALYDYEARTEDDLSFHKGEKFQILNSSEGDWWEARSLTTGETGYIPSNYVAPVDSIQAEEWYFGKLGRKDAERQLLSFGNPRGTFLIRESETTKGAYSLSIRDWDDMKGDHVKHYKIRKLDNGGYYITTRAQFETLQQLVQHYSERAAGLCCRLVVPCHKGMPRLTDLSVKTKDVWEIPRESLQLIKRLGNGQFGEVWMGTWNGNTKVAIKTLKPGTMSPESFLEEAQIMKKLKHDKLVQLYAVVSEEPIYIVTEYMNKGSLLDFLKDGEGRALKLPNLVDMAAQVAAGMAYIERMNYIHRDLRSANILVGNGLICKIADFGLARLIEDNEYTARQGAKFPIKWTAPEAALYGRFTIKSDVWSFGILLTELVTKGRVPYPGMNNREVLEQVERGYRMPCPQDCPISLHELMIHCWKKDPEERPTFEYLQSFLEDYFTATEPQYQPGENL
Experiment [9] in a line: DRUGMATRIX: Purinergic P2X radioligand binding (ligand: [3H] alpha, beta-Methylene-ATP). It counts as cell membranes, Oryctolagus cuniculus, New Zealand albino, Urinary bladder, Membrane. The conditions noted are these: Not Active = under 50% inhibition at 10 µM.
Experiment [10] concerns the target 5-hydroxytryptamine receptor 1B (Rattus norvegicus, UniProt P28564). It counts as cell membranes, Wistar, Cerebral cortex, Membrane. Further: in other assays of this panel Not Active means under 50% inhibition at 10 µM.

5-hydroxytryptamine receptor 1B, sequence (P28564 whole entry): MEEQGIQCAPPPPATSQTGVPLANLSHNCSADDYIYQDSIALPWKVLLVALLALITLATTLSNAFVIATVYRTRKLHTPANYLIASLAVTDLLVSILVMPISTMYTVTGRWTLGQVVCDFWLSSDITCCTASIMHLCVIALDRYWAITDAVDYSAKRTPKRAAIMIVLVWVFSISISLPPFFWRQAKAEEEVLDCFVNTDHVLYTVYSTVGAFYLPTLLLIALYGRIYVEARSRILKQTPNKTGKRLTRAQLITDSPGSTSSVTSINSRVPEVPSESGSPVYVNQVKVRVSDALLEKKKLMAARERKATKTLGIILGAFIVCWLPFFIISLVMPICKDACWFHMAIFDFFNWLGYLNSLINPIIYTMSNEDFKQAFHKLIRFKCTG

For the compound `CCCC[C@@H](CC)COC(=O)c1ccccc1C(=O)OC[C@@H](CC)CCCC` [BIS(2-ETHYLHEXYL)PHTHALATE], the IC50 entry (in experiment [1]; in experiment [2]; in [3]; in experiment [4]; on D(4) dopamine receptor; in [5]) was “Not Active” each time. Moreover, the IC50 result (in experiment [6]; against Melanocortin receptor 4; at Melanocortin receptor 5; against Caspase-1; against Cathepsin G; in [7]) was “Not Active” throughout. Besides, the IC50 entry in experiment [8], in experiment [9] and in experiment [10] was “Not Active” throughout. Besides, the Ki entry in [2], in experiment [4], in experiment [5] and in [9] was “Not Active” in each case.
On to `N#C[C@H](O[C@@H]1O[C@H](CO[C@@H]2O[C@H](CO)[C@@H](O)[C@H](O)[C@H]2O)[C@@H](O)[C@H](O)[C@H]1O)c1ccccc1` [AMYGDALIN], for which the IC50 entry (in experiment [1]; in experiment [2]; in experiment [3]; in [4]; at D(4) dopamine receptor; in [5]) was “Not Active” in each case. Besides, the IC50 result (in experiment [6]; against Melanocortin receptor 4; on Melanocortin receptor 5; at Caspase-1; on Cathepsin G; in experiment [7]) was “Not Active” in each case. The IC50 result in experiment [8], in [9] and in experiment [10] was “Not Active” each time. Further, the Ki result in experiment [2], in experiment [4], in [5] and in experiment [9] was “Not Active” each time.
For CISPLATIN, the IC50 result (in [1]; in experiment [2]; in experiment [3]; in [4]; on D(4) dopamine receptor; in experiment [5]) was “Not Active” throughout. Also, the IC50 result in experiment [6] was “Not Active”; on Melanocortin receptor 4, “Not Active”; at Melanocortin receptor 5 (read-out: IC50) it was 6.43 µM; on Caspase-1, “Not Active”; at Cathepsin G, “Not Active”; in [7] (read-out: IC50) it was 2620 nM. Further, the IC50 in [8] (read-out: IC50) was 4770 nM; in experiment [9], “Not Active”; in experiment [10], “Not Active”. In addition, the Ki entry (in experiment [1]; in experiment [2]; in experiment [3]; in [4]; at D(4) dopamine receptor; in experiment [5]) was “Not Active” each time. Also, the Ki entry in experiment [6] is “Not Active”; on Melanocortin receptor 4 it was “Not Active”; on Melanocortin receptor 5 (read-out: Ki) it was 6.04 µM; at Caspase-1, “Not Active”; on Cathepsin G, “Not Active”; in [9], “Not Active”. For the same compound, in experiment [10], the Ki entry is recorded as “Not Active”.
As for `C=C1[C@@H]2CCC3[C@@](CC[C@@H]4[C@H](C(=O)O)C[C@@H](O[C@@H]5O[C@H](CO)[C@@H](OS(=O)(=O)[O-])[C@H](OS(=O)(=O)[O-])[C@H]5OC(=O)CC(C)C)C[C@@]34C)(C2)[C@@H]1O.[K+].[K+]` (some centres not stated) [ATRACTYLOSIDE], the IC50 result (in experiment [1]; in experiment [2]; in experiment [3]; in experiment [4]; on D(4) dopamine receptor; in experiment [5]) was “Not Active” throughout. Also, the IC50 result (in [6]; against Melanocortin receptor 4; at Melanocortin receptor 5; on Caspase-1; at Cathepsin G; in experiment [7]) was “Not Active” throughout. The IC50 result in experiment [8], in experiment [9] and in experiment [10] was “Not Active” throughout. In addition, the Ki result in [2], in experiment [4], in [5] and in experiment [9] was “Not Active” throughout.
With GOLD SODIUM THIOMALATE, the IC50 entry (in [1]; in experiment [2]; in experiment [3]; in experiment [4]; at D(4) dopamine receptor; in experiment [5]) was “Not Active” each time. The 50% inhibitory concentration (IC50) entry is “Not Active” in experiment [6]; “Not Active” on Melanocortin receptor 4; “Not Active” on Melanocortin receptor 5; “Not Active” on Caspase-1; “Not Active” against Cathepsin G; 811 nM in experiment [8] (read-out: IC50). For the same compound, the IC50 result in [9] and in experiment [10] was “Not Active” each time. The Ki result (in experiment [1]; in experiment [2]; in experiment [3]; in experiment [4]; on D(4) dopamine receptor; in experiment [5]) was “Not Active” throughout. Moreover, the Ki result (in experiment [6]; at Melanocortin receptor 4; at Melanocortin receptor 5; at Caspase-1; at Cathepsin G; in [9]) was “Not Active” throughout. Also, the Ki result in experiment [10] is “Not Active”.

The values above are taken from ChEMBL document CHEMBL1909046, “DrugMatrix in vitro pharmacology data”.
